Test system: 233499-124-R-J3-PDC complex spheroid viability
Assay: Anticancer human tumor 233499-124-R-J3-PDC patient-derived colon adenocarcinoma cell line growth inhibition [CLK]
Settings: for IC50: curve of first compound; for viability, T/C: stronger effect = lower value
Excerpt: A high-throughput screen of multi-cell type tumor spheroids was designed to identify active combinations of […] and targeted small molecules. Complex spheroids include a stromal component modeled by human endothelial cells (HUVEC) and fibroblasts modeled by human mesenchymal stem cells (MSCs). The concentration ranges selected for each drug and investigational agent were based upon clinically achievable concentrations if the clinical Cmax of the agent was known.
Compounds. The drugs and investigational agents: cirtuvivint (SM08502; NSC835563), CC-671 (NSC850746), vemurafenib (NSC761431), tapotoclax (NSC804041), sotorasib (NSC818433), adagrasib (NSC831453), MRTX-1133 (NSC836407), BAY2416964 (NSC825713), copanlisib (NSC816437), inavolisib (NSC800729), abemaciclib (NSC768073), osimertinib (NSC779217), entinostat (NSC756642), eltanexor (KPT-8602, NSC794443), venetoclax (NSC766270), ceralasertib (NSC777638), bortezomib (NSC756655), olaparib (NSC753686), talazoparib (NSC767125), alisertib (NSC759677), peposertib (NSC802822), gemcitabine (NSC613327), 5-fluorouracil (NSC19893), SN-38 (NSC673596), oxaliplatin (NSC266046), paclitaxel (NSC125973), and doxorubicin (NSC123127), were obtained from the National Cancer Institute (NCI) Developmental Therapeutics Program Chemical Repository. The FDA-approved anticancer drug set is available from the Developmental Therapeutics Program at https://dtp.cancer.gov/organization/dscb/obtaining/available plates.htm. […] The stock solutions were prepared in dimethyl sulfoxide (DMSO, Sigma-Aldrich, St. Louis, MO, cat. D2650), except for the platinum complexes which were prepared in saline (Quality Biological, Gaithersburg, MD, cat. 114-055-101), at 800-fold the tested concentration and stored at -70 degrees C prior to their use. All drugs and investigational agents were tested over a range starting from a high concentration at or near the clinical Cmax and decreasing in half-log increments. If the clinical Cmax for an agent had not been determined, the highest concentration tested was 10 microM.
Cell Culture. All cells were maintained in an incubator at 37 degrees C and 5% CO2 with 95% humidity. The PDC lines were cultured according to standard operating procedures established by the NCI PDMR. Briefly, all PDCs were thawed and cultured in Matrigel-coated flasks prepared with a working solution of 1X Ham's F-12 nutrient mix, without supplementation (Invitrogen, Waltham, MA, cat. 11765054), 100 U/mL penicillin-streptomycin (Invitrogen, cat. 15140122), and 2.5% Matrigel (Corning Inc., Corning, NY, cat. 354248) for the first three passages. The 947758-054-R-J2-PDC line was cultured in 6B/Colon 1A media, which includes advanced DMEM/F-12 (Thermo Fisher Scientific, cat. 12634028), 10 mM HEPES (Thermo Fisher Scientific, cat. 15630080), 1X GlutaMAX supplement (Thermo Fisher Scientific, cat. 35050061), 0.1 mg/mL primocin (InvivoGen, cat. ant-pm-2), 10% defined fetal bovine serum, heat inactivated (HyClone Laboratories Inc., cat. SH30070.03HI), 1.25 mM N-Acetyl-L-cysteine (Sigma-Aldrich, cat. A9165), 10 mM nicotinamide (Sigma-Aldrich, cat. N0636), 1X B-27 supplement (Thermo Fisher Scientific, cat. 17504044), 1X N-2 supplement (Thermo Fisher Scientific, cat. 17502048), and 10 microM Y-27632 dihydrochloride (Tocris Bioscience, cat. 1254). The 876862-298-R-J1-PDC was cultured in 6E media, which includes all 6B/Colon 1A media components plus 50% L-WRN conditioned media (ATCC, cat. CRL-3276), 50 ng/mL recombinant human EGF recombinant protein (hEGF; Thermo Fisher Scientific, cat. PHG0311), 10 ng/mL recombinant human fibroblast growth factor 10 (hGFG-10; PeproTech, cat. 100-26), 1 ng/mL recombinant human fibroblast growth factor 2 (hFGF-2; PeproTech, cat. 100-18B), and 1 µM prostaglandin E2 (PGE2; Tocris, cat. 2296). The 227483-062-R1-J1-PDC line was cultured in Panc media, containing all 6E components except hFGF-2, with the addition of 500 nM SB-431542 (Selleckchem, cat. S1067) and 10 nM gastrin (Tocris, cat. 3006). […]

[1] = second compound 0.0316 µM, first compound 0.0316 µM
[2] = second compound 0.0316 µM, first compound 0.1 µM
[3] = second compound 0.0316 µM, first compound 0.316 µM
[4] = second compound 0.0316 µM, first compound 1 µM
[5] = second compound 0.0316 µM, first compound 3.16 µM
[6] = second compound 0.0316 µM, first compound 10 µM
[7] = second compound 0.1 µM, first compound 0.0316 µM
[8] = second compound 0.1 µM, first compound 0.1 µM
[9] = second compound 0.1 µM, first compound 0.316 µM
[10] = second compound 0.1 µM, first compound 1 µM
[11] = second compound 0.1 µM, first compound 3.16 µM
[12] = second compound 0.1 µM, first compound 10 µM
[13] = second compound 0.316 µM, first compound 0.0316 µM
[14] = second compound 0.316 µM, first compound 0.1 µM
[15] = second compound 0.316 µM, first compound 0.316 µM
[16] = second compound 0.316 µM, first compound 1 µM
[17] = second compound 0.316 µM, first compound 3.16 µM
[18] = second compound 0.316 µM, first compound 10 µM
[19] = second compound 1 µM, first compound 0.0316 µM
[20] = second compound 1 µM, first compound 0.1 µM
[21] = second compound 1 µM, first compound 0.316 µM
[22] = second compound 1 µM, first compound 1 µM
[23] = second compound 1 µM, first compound 3.16 µM
[24] = second compound 1 µM, first compound 10 µM
[25] = second compound 3.16 µM, first compound 0.0316 µM
[26] = second compound 3.16 µM, first compound 0.1 µM
[27] = second compound 3.16 µM, first compound 0.316 µM
[28] = second compound 3.16 µM, first compound 1 µM
[29] = second compound 3.16 µM, first compound 3.16 µM
[30] = second compound 3.16 µM, first compound 10 µM
[31] = second compound 10 µM, first compound 0.0316 µM
[32] = second compound 10 µM, first compound 0.1 µM
[33] = second compound 10 µM, first compound 0.316 µM
[34] = second compound 10 µM, first compound 1 µM
[35] = second compound 10 µM, first compound 3.16 µM
[36] = second compound 10 µM, first compound 10 µM
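Also: spheroids exposed to the drug combinations for seven days.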
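For viability, T/C in this document: percent viability relative to DMSO vehicle control wells taken as 100%.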

C=CC(=O)N1CCN(c2nc(=O)n(-c3c(C)ccnc3C(C)C)c3nc(-c4c(O)cccc4F)c(F)cc23)C(C)C1 (centres undefined) + CN1CCN(c2cc(C(=O)Nc3cc4cc(-c5cnn(C)c5)ccc4cn3)ccn2)CC1
IC50 (second compound 0.0316 µM): > 10000 nM
IC50 (second compound 0.1 µM): > 10000 nM
IC50 (second compound 0.316 µM): > 10000 nM
IC50 (second compound 1 µM): < 31.6 nM
IC50 (second compound 3.16 µM): < 31.6 nM
IC50 (second compound 10 µM): < 31.6 nM
viability, T/C [1]: 91%
viability, T/C [2]: 105%
viability, T/C [3]: 103%
viability, T/C [4]: 102%
viability, T/C [5]: 102%
viability, T/C [6]: 101%
viability, T/C [7]: 99.8%
viability, T/C [8]: 102%
viability, T/C [9]: 106%
viability, T/C [10]: 99.9%
viability, T/C [11]: 101%
viability, T/C [12]: 108%
viability, T/C [13]: 89.6%
viability, T/C [14]: 103%
viability, T/C [15]: 96%
viability, T/C [16]: 88.5%
viability, T/C [17]: 92.4%
viability, T/C [18]: 82.6%
viability, T/C [19]: 3.8%
viability, T/C [20]: 11.4%
viability, T/C [21]: 1.76%
viability, T/C [22]: 2.52%
viability, T/C [23]: 1.73%
viability, T/C [24]: 0.3%
viability, T/C [25]: 0.65%
viability, T/C [26]: 0.61%
viability, T/C [27]: 0.73%
viability, T/C [28]: 0.79%
viability, T/C [29]: 1.69%
viability, T/C [30]: 1.55%
viability, T/C [31]: 0.41%
viability, T/C [32]: 0.38%
viability, T/C [33]: 0.45%
viability, T/C [34]: 0.53%
viability, T/C [35]: 0.5%
viability, T/C [36]: 1.01%

COC1C=CCC(C)C(C)S(=O)(=O)NC(=O)c2ccc3c(c2)N(CC2CCC21)CC1(CCCc2cc(Cl)ccc21)CO3 (centres undefined) + CN1CCN(c2cc(C(=O)Nc3cc4cc(-c5cnn(C)c5)ccc4cn3)ccn2)CC1
IC50 (second compound 0.0316 µM): 3890 nM
IC50 (second compound 0.1 µM): 3650 nM
IC50 (second compound 0.316 µM): 270 nM
IC50 (second compound 1 µM): < 31.6 nM
IC50 (second compound 3.16 µM): < 31.6 nM
IC50 (second compound 10 µM): < 31.6 nM
viability, T/C [1]: 93.9%
viability, T/C [2]: 98%
viability, T/C [3]: 94.6%
viability, T/C [4]: 80.2%
viability, T/C [5]: 60.4%
viability, T/C [6]: 7.46%
viability, T/C [7]: 98.8%
viability, T/C [8]: 98.6%
viability, T/C [9]: 90.5%
viability, T/C [10]: 79.7%
viability, T/C [11]: 57.3%
viability, T/C [12]: 7.28%
viability, T/C [13]: 91.5%
viability, T/C [14]: 80%
viability, T/C [15]: 46.5%
viability, T/C [16]: 13.9%
viability, T/C [17]: 30.5%
viability, T/C [18]: 3.11%
viability, T/C [19]: 0.62%
viability, T/C [20]: 1.27%
viability, T/C [21]: 0.44%
viability, T/C [22]: 0.32%
viability, T/C [23]: 0.78%
viability, T/C [24]: 0.58%
viability, T/C [25]: 0.45%
viability, T/C [26]: 0.45%
viability, T/C [27]: 0.5%
viability, T/C [28]: 0.44%
viability, T/C [29]: 0.43%
viability, T/C [30]: 0.31%
viability, T/C [31]: 0.31%
viability, T/C [32]: 0.28%
viability, T/C [33]: 0.31%
viability, T/C [34]: 0.3%
viability, T/C [35]: 0.29%
viability, T/C [36]: 0.22%
